Assay results from PMC10187093, “Synthesis, in silico modelling, and in vitro biological evaluation of substituted pyrazole derivatives as potential anti-skin cancer, anti-tyrosinase, and antioxidant agents” (Journal of Enzyme Inhibition and Medicinal Chemistry, 2023).
Where two headings read alike, the source gives them in different places.

Legend:
mushroom tyrosinase = target: T1, mushroom tyrosinase (Agaricus bisporus, UniProt C7FF04); assay: In vitro mushroom tyrosinase inhibition assay; assay type: biochemical; conditions: for inhibition at 500 µM: read-out: % Inhibition of tyrosinase; for IC50: > 500 = not biologically relevant
T1 construct: purchased Sigma-Aldrich Chemical Company (St. Louis, MO) and MP Biomedicals (Irvine, CA)
Description: The anti-tyrosinase potential of all the synthesised derivatives was determined by an enzymatic tyrosinase inhibition assay based on their ability to inhibit the substrate, L-tyrosine, from binding to the tyrosinase enzyme. […] Test samples were dissolved in DMSO at a concentration of 10 mM and then diluted to different concentrations with phosphate buffer (0.1 M, pH 6.8). Each well contained 40 µL of the sample with 80 µL of phosphate buffer solution (0.1 M, pH 6.8), 40 µL of tyrosinase enzyme (100 units/mL), and 40 µL L-tyrosine (2.5 mM). The mixture was incubated for 30 min at room temperature, and absorbance was measured at 490 nm. Each sample was accompanied by a sample blank containing all components except tyrosinase. […] The percentage of tyrosinase inhibition was calculated as follows: ((ΔAcontrol – ΔAsample)/ΔAcontrol) × 100. IC50 values denoted the sample concentration required to inhibit 50% tyrosinase activity (Table S1).

A375 = assay: MTT antiproliferative/cytotoxicity assay, A375; assay type: cell-based, human; conditions: Homo sapiens, A-375, 48 h, read-out: IC50 A375
Description: (§1) Human-derived GFP-expressing melanoma A375 and epidermoid carcinoma A431 cell lines were purchased from Angio-Proteomie (Boston, MA). Human melanoma carcinoma SK-MEL-28 and human immortalised keratinocytes (HaCaT) cell lines were acquired from American Type Culture Collection (ATCC; Manassas, VA). Human cutaneous SCC cell line SCC-12[192] was generously provided by Dr. James G. Rheinwald to Dr. Tatiana Efimova. Except SK-MEL-28, which was cultured in an RPMI-1640 medium supplemented with 5% FBS, all other human immortalised cell lines were grown and maintained in DMEM containing varying percentages of FBS; 5% FBS for A431, SCC-12, and HaCaT lines, and 10% FBS for A375. All culture media were routinely supplemented with 1% PEST 100X (100 U/mL penicillin, 100 μg/mL streptomycin), and cells were cultured in incubators maintained at 37 °C under an atmosphere of 95% humidity, 20% O2, and 5% CO2. The growth media of incubated cells were changed every 2–3 days until they attained 70–80% confluence, after which they were sub-cultured for experiments and re-passaging. DMSO was used as the vehicle to prepare a 10 mM stock solution of the test compounds.
(§2) Stock solutions (10 mM) were prepared by dissolving each compound to be screened in DMSO. From these stock solutions, escalating concentrations were prepared using the corresponding cell growth media as a diluent, and the cells (65–75% confluent) were treated with (0–40 µM) or without the drug in sext- to octuplicate and incubated for 48 h. All treatment protocols and controls were prepared as previously described.
(§3) The potency and cytotoxicity of the test compounds against two cutaneous melanoma (A375 and SK-MEL-28) and two non-melanoma (A431 and SCC-12) SC cell lines in addition to a control immortalised normal human epidermal keratinocytes (HaCaT) cell line were assessed by MTT assay as previously described.

SK-MEL-28 = assay: MTT antiproliferative/cytotoxicity assay, SK-MEL-28; assay type: cell-based, human; conditions: Homo sapiens, SK-MEL-28, 48 h, read-out: IC50 SKMEL-28
Description: as §1, §2, §3

GFP-A431 = assay: MTT antiproliferative/cytotoxicity assay, A431; assay type: cell-based, human; conditions: for IC50: Homo sapiens, A-431, 48 h, read-out: IC50 GFP-A431; for selectivity index (SI) A431: IC50 HaCaT divided by IC50 A431
Description: (§4) Human-derived GFP-expressing melanoma A375 and epidermoid carcinoma A431 cell lines were purchased from Angio-Proteomie (Boston, MA). Human melanoma carcinoma SK-MEL-28 and human immortalised keratinocytes (HaCaT) cell lines were acquired from American Type Culture Collection (ATCC; Manassas, VA). […] The growth media of incubated cells were changed every 2–3 days until they attained 70–80% confluence, after which they were sub-cultured for experiments and re-passaging. DMSO was used as the vehicle to prepare a 10 mM stock solution of the test compounds.
(§5) Stock solutions (10 mM) were prepared by dissolving each compound to be screened in DMSO.

SCC-12 = assay: MTT antiproliferative/cytotoxicity assay, SCC-12; assay type: cell-based, human; conditions: for IC50: Homo sapiens, SCC12, 48 h, read-out: IC50 SCC-12; for selectivity index (SI) SCC-12: IC50 HaCaT divided by IC50 SCC-12
Description: as §4, §5

HaCaT = assay: MTT cytotoxicity assay, noncancerous HaCaT keratinocytes; assay type: cell-based, human; conditions: Homo sapiens, HaCaT, 48 h, read-out: IC50 HaCaT
Description: as §1, §2, §3

[1] = DPPH free radical scavenging assay; conditions: for Percent Scavenging (DPPH): 1 mM
Description: An initial screen was done of all 25 derivatives at a concentration of 1 mM. […] Methanol was used as the diluent, and 100 µL of DPPH (200 µM; Sigma-Aldrich, St. Louis, MO) was added to each well. […] The scavenging capacity (SC) was calculated as SC% = ((ΔAcontrol – ΔAsample)/ΔAcontrol) × 100%, where ΔAcontrol was the absorbance of the reagent blank, and ΔAsample was the absorbance of the test samples. The control contained all reagents except the compounds, and all tests were performed in triplicate. Quercetin served as a positive control. The DPPH methanolic solution (1 mL) mixed with DMSO (5 µL) served as a negative control.

[2] = 500 µM, single-concentration screen
[3] = read-out: IC50 Value, mushroom tyrosinase inhibition (Table S1)
[4] = control noncancerous keratinocytes, MTT
[5] = N.A. = No Activity, > 1000 = not biologically relevant, read-out: IC50 Value, DPPH antioxidant activity (Table S4)

T1 sequence (C7FF04 1-392 limits assumed): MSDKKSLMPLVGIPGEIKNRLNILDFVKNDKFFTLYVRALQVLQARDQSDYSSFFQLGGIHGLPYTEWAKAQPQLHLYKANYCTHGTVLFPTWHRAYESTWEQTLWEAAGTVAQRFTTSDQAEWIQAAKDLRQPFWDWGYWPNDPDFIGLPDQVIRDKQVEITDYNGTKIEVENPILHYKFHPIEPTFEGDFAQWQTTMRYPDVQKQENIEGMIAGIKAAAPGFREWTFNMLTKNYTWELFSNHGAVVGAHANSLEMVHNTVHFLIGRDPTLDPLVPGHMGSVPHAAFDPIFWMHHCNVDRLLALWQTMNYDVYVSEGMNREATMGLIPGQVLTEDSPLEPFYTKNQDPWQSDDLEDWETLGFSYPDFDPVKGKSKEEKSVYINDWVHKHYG

Row | inhibition at 500 µM (mushroom tyrosinase; [2]) [%] | IC50 (mushroom tyrosinase; [3]) [µM] | SMILES | IC50 (A375; melanoma, MTT, 48 h) [µM] | IC50 (SK-MEL-28; melanoma, MTT, 48 h) [µM] | IC50 (GFP-A431; non-melanoma, MTT, 48 h) [µM] | IC50 (SCC-12; non-melanoma, MTT, 48 h) [µM] | IC50 (HaCaT; [4]) [µM] | Percent Scavenging (DPPH) [1] [%] | also measured
1 | 55.5 | > 500 | CCc1c(C)nn(-c2ccccc2)c1C [P7, 4-Ethyl-3,5-dimethyl-1-phenyl-1H-pyrazole] | 53.3 ± 4.2 | 46 ± 1 | 47.8 ± 2 | 43 ± 2.1 | 59.2 ± 3.5 | 15.47 | IC50 [1, 5]: > 1000 µM
2 | 67.2 ± 0.2 | 190 | Cc1nn(-c2ccccc2)c2c1CCC2 [P8, 3-Methyl-1-phenyl-1,4,5,6-tetrahydrocyclopenta[c]pyrazole] | 55.3 ± 3.8 | 181 ± 4.7 | 72.2 ± 5.2 | 120 ± 8.5 | 44.5 ± 1.4 | -2.57 | –
3 | 21.2 | > 500 | Cc1cc(-c2ccccc2)n(-c2ccc(S(N)(=O)=O)cc2)n1 [P19, 4-(3-Methyl-5-phenyl-1H-pyrazol-1-yl)benzenesulfonamide] | 47.1 ± 4.2 | 40.5 ± 3 | – | – | 57 ± 1.3 | -18.51 | –

The next lines start with the compound.

Row | SMILES | inhibition at 500 µM (mushroom tyrosinase; [2]) [%] | IC50 (mushroom tyrosinase; [3]) [µM] | IC50 (A375; melanoma, MTT, 48 h) [µM] | IC50 (SK-MEL-28; melanoma, MTT, 48 h) [µM] | IC50 (GFP-A431; non-melanoma, MTT, 48 h) [µM] | IC50 (SCC-12; non-melanoma, MTT, 48 h) [µM] | IC50 (HaCaT; [4]) [µM] | Percent Scavenging (DPPH) [1] [%] | also measured
4 | Cc1c2c(nn1-c1ccccc1)-c1ccccc1CC2 [P9, 3-Methyl-2-phenyl-4,5-dihydro-2H-benzo[g]indazole] | 9.49 | > 500 | 45.2 ± 2 | 40.8 ± 1 | 28 ± 3.6 | 28.8 ± 1.4 | 43.6 ± 1.4 | 5.48 | selectivity index (SI) A431 (GFP-A431): 1.6; selectivity index (SI) SCC-12 (SCC-12): 1.5; IC50 [1, 5]: > 1000 µM
5 | CCOC(=O)c1c(C)nn(-c2ccccc2)c1C [P10, Ethyl 3,5-dimethyl-1-phenyl-1H-pyrazole-4-carboxylate] | – | – | – | – | – | – | – | -11.90 | IC50 (mushroom tyrosinase; IC50 Value, mushroom tyrosinase inhibition (Table S1)): > 500 µM; inhibition at 500 µM (mushroom tyrosinase): 31%; IC50 (A375): 55.3 ± 2.5 µM; IC50 (SK-MEL-28): 43.7 ± 2.7 µM; IC50 (GFP-A431): 196 ± 3.8 µM; IC50 (SCC-12): 49.1 ± 2 µM; IC50 (HaCaT): 68 ± 1.2 µM
6 | Cc1cc(-c2ccccc2)no1 [P11, 5-Methyl-3-phenylisoxazole] | 88 ± 0.3 | 173 | 57.8 ± 6.5 | 34.5 ± 1.2 | 43.7 ± 2.7 | 44.6 ± 1.3 | 116 ± 10.1 | -27.39 | selectivity index (SI) A431 (GFP-A431): 2.6; selectivity index (SI) SCC-12 (SCC-12): 2.6
7 | OC[C@H]1O[C@@H](Oc2ccc(O)cc2)[C@H](O)[C@@H](O)[C@@H]1O [arbutin, 4-hydroxyphenyl β-D-glucopyranoside, reference compound] | 59 ± 0.4 | – | – | – | – | – | – | – | –
8 | O=C1O[C@H]([C@@H](O)CO)C(O)=C1O [ascorbic acid, reference compound] | – | – | – | – | – | – | – | – | IC50 ([1]; read-out: IC50 DPPH radical scavenging): 25.2 ± 1.4 µM
9 | O=c1c(O)c(-c2ccc(O)c(O)c2)oc2cc(O)cc(O)c12 [quercetin, reference compound] | – | – | – | – | – | – | – | 60 | Percent Scavenging (DPPH) ([1]; listed as Quercetin): 60.83%
